Results as given in the supplement of paper PMC8617591.

How the values were obtained:
[1] = test system: Mycobacterium tuberculosis Erdman (autoluminescent); assay: total FIC50 (Loewe) at 50% inhibition, three-drug combination (log2); higher = more antagonistic
Procedure: (§1)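 DiaMOND equipotent three-drug combination dose responses (10 doses, 1.5- or 2-fold spacing, centred on IC90) against autoluminescent M. tuberculosis Erdman in 8 in vitro models. Read-out is OD600, or luminescence for the intracellular and dormancy models, normalised to untreated wells. Hill-fit Einf, AUC25 and GRinf are potency metrics; FIC50 and FIC90 are total Loewe fractional inhibitory concentrations as log2 (negative = synergy).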

[2] = test system: Mycobacterium tuberculosis Erdman (autoluminescent); assay: total FIC90 (Loewe) at 90% inhibition, three-drug combination (log2); higher = more antagonistic
Procedure: as §1

[3] = test system: Mycobacterium tuberculosis Erdman (autoluminescent); assay: Einf, fitted maximum growth inhibition of three-drug combination (fraction); higher = stronger maximal inhibition
Procedure: as §1

[4] = test system: Mycobacterium tuberculosis Erdman (autoluminescent); assay: AUC25, normalised area under dose response up to IC25 (three-drug combination) (fraction (0-1)); higher = more potent at low dose
Procedure: as §1

[5] = test system: Mycobacterium tuberculosis Erdman (autoluminescent); assay: GRinf, maximum normalised growth rate inhibition (three-drug combination) (unitless (-1 to 1)); higher = less effect (negative = killing)
Procedure: as §1

[6] = in vitro model: acidic pH 5.7, time point: constant (~7 days, model-specific)
[7] = in vitro model: acidic pH 5.7, time point: terminal (~4-5 doublings, model-specific)
[8] = in vitro model: butyrate, time point: constant (~7 days, model-specific)
[9] = in vitro model: butyrate, time point: terminal (~4-5 doublings, model-specific)
[10] = in vitro model: cholesterol 0.05 mM, time point: constant (~7 days, model-specific)
[11] = in vitro model: cholesterol 0.05 mM, time point: terminal (~4-5 doublings, model-specific)
[12] = in vitro model: cholesterol-high 0.2 mM, time point: constant (~7 days, model-specific)
[13] = in vitro model: cholesterol-high 0.2 mM, time point: terminal (~4-5 doublings, model-specific)
[14] = in vitro model: dormancy (butyrate + nitrate, low O2), time point: constant (~7 days, model-specific)
[15] = in vitro model: dormancy (butyrate + nitrate, low O2), time point: terminal (~4-5 doublings, model-specific)
[16] = in vitro model: standard 7H9 glycerol, time point: constant = terminal
[17] = in vitro model: valerate, time point: constant (~7 days, model-specific)
[18] = in vitro model: valerate, time point: terminal (~4-5 doublings, model-specific)
[19] = in vitro model: intracellular J774, time point: constant = terminal

## COc1nc2ccc(Br)cc2cc1[C@@H](c1ccccc1)[C@@](O)(CCN(C)C)c1cccc2ccccc12 [bedaquiline] + CC(=O)NC[C@H]1CN(c2ccc(N3CCOCC3)c(F)c2)C(=O)O1 [linezolid] + O=[N+]([O-])c1cn2c(n1)OC[C@@H](OCc1ccc(OC(F)(F)F)cc1)C2 [pretomanid]
[1]; [6]
  total FIC50: 0.414
[1]; [7]
  total FIC50: 0.58
[1]; [8]
  total FIC50: 0.731
[1]; [9]
  total FIC50: 0.645
[1]; [10]
  total FIC50: 0.169
[1]; [11]
  total FIC50: 0.274
[1]; [12]
  total FIC50: 0.197
[1]; [13]
  total FIC50: -0.088
[1]; [14]
  total FIC50: -0.22
[1]; [15]
  total FIC50: -0.261
[1]; [16]
  total FIC50: 0.296
[1]; [17]
  total FIC50: 0.447
[1]; [18]
  total FIC50: 0.00392
[2]; [7]
  total FIC90: 0.474
[2]; [8]
  total FIC90: 1.49
[2]; [9]
  total FIC90: 0.887
[2]; [11]
  total FIC90: 0.577
[2]; [13]
  total FIC90: 0.591
[2]; [14]
  total FIC90: -0.616
[2]; [15]
  total FIC90: -1.1
[2]; [19]
  total FIC90: 1.25
[2]; [16]
  total FIC90: 0.191
[2]; [17]
  total FIC90: 1.63
[2]; [18]
  total FIC90: 1.32
[3]; [6]
  Einf: 0.937
[3]; [7]
  Einf: 0.992
[3]; [8]
  Einf: 0.943
[3]; [9]
  Einf: 0.97
[3]; [10]
  Einf: 0.738
[3]; [11]
  Einf: 0.962
[3]; [12]
  Einf: 0.948
[3]; [13]
  Einf: 1
[3]; [14]
  Einf: 0.92
[3]; [15]
  Einf: 0.988
[3]; [19]
  Einf: 0.99
[3]; [16]
  Einf: 0.955
[3]; [17]
  Einf: 0.929
[3]; [18]
  Einf: 0.958
[4]; [6]
  AUC25: 0.118
[4]; [7]
  AUC25: 0.0812
[4]; [8]
  AUC25: 0.105
[4]; [9]
  AUC25: 0.0754
[4]; [10]
  AUC25: 0.136
[4]; [11]
  AUC25: 0.141
[4]; [12]
  AUC25: 0.112
[4]; [13]
  AUC25: 0.115
[4]; [14]
  AUC25: 0.0459
[4]; [15]
  AUC25: 0.0294
[4]; [16]
  AUC25: 0.0809
[4]; [17]
  AUC25: 0.139
[4]; [18]
  AUC25: 0.115
[5]; [6]
  GRinf: -0.508
[5]; [7]
  GRinf: -0.56
[5]; [8]
  GRinf: -0.119
[5]; [9]
  GRinf: -0.0976
[5]; [10]
  GRinf: -0.284
[5]; [11]
  GRinf: -0.303
[5]; [12]
  GRinf: -0.376
[5]; [13]
  GRinf: -0.834
[5]; [14]
  GRinf: 0.23
[5]; [15]
  GRinf: -0.115
[5]; [19]
  GRinf: -0.78
[5]; [16]
  GRinf: -0.108
[5]; [17]
  GRinf: -0.172
[5]; [18]
  GRinf: -0.132

## COc1nc2ccc(Br)cc2cc1[C@@H](c1ccccc1)[C@@](O)(CCN(C)C)c1cccc2ccccc12 [bedaquiline] + CC(C)/N=c1\cc2n(-c3ccc(Cl)cc3)c3ccccc3nc-2cc1Nc1ccc(Cl)cc1 [clofazimine] + CC(=O)NC[C@H]1CN(c2ccc(N3CCOCC3)c(F)c2)C(=O)O1 [linezolid]
[1]; [6]
  total FIC50: 0.0418
[1]; [7]
  total FIC50: 0.786
[1]; [8]
  total FIC50: 0.0722
[1]; [9]
  total FIC50: 0.112
[1]; [10]
  total FIC50: -0.461
[1]; [11]
  total FIC50: -0.129
[1]; [12]
  total FIC50: -0.437
[1]; [13]
  total FIC50: -0.195
[1]; [14]
  total FIC50: -0.36
[1]; [15]
  total FIC50: -0.24
[1]; [16]
  total FIC50: -0.27
[1]; [17]
  total FIC50: 0.0537
[1]; [18]
  total FIC50: 0.263
[2]; [7]
  total FIC90: 0.299
[2]; [8]
  total FIC90: -0.55
[2]; [9]
  total FIC90: -0.466
[2]; [11]
  total FIC90: -0.783
[2]; [12]
  total FIC90: -0.594
[2]; [13]
  total FIC90: -0.484
[2]; [14]
  total FIC90: -0.911
[2]; [15]
  total FIC90: -0.848
[2]; [19]
  total FIC90: 0.186
[2]; [16]
  total FIC90: -0.871
[2]; [17]
  total FIC90: -0.00887
[2]; [18]
  total FIC90: 1.19
[3]; [6]
  Einf: 0.874
[3]; [7]
  Einf: 0.97
[3]; [8]
  Einf: 0.947
[3]; [9]
  Einf: 0.977
[3]; [10]
  Einf: 0.769
[3]; [11]
  Einf: 0.951
[3]; [12]
  Einf: 0.944
[3]; [13]
  Einf: 0.999
[3]; [14]
  Einf: 0.913
[3]; [15]
  Einf: 0.99
[3]; [19]
  Einf: 0.929
[3]; [16]
  Einf: 0.962
[3]; [17]
  Einf: 0.931
[3]; [18]
  Einf: 0.944
[4]; [6]
  AUC25: 0.0792
[4]; [7]
  AUC25: 0.0781
[4]; [8]
  AUC25: 0.0701
[4]; [9]
  AUC25: 0.0486
[4]; [10]
  AUC25: 0.14
[4]; [11]
  AUC25: 0.137
[4]; [12]
  AUC25: 0.0852
[4]; [13]
  AUC25: 0.0962
[4]; [14]
  AUC25: 0.0703
[4]; [15]
  AUC25: 0.0497
[4]; [16]
  AUC25: 0.0911
[4]; [17]
  AUC25: 0.134
[4]; [18]
  AUC25: 0.0869
[5]; [6]
  GRinf: -0.465
[5]; [7]
  GRinf: -0.331
[5]; [8]
  GRinf: -0.105
[5]; [9]
  GRinf: -0.115
[5]; [10]
  GRinf: -0.304
[5]; [11]
  GRinf: -0.374
[5]; [12]
  GRinf: -0.281
[5]; [13]
  GRinf: -0.488
[5]; [14]
  GRinf: 0.219
[5]; [15]
  GRinf: -0.161
[5]; [19]
  GRinf: -0.17
[5]; [16]
  GRinf: -0.0979
[5]; [17]
  GRinf: -0.127
[5]; [18]
  GRinf: -0.0541
